Assay results: patent US8420592B2, “Methods of treatment using single doses of oritavancin” (The Medicines Company, priority 2008, dated 2013)

How the values were obtained:
[1] = system: MRSA (S. aureus NRS123 and clinical MRSA strains); experiment: Neutropenic-mouse thigh infection model; assay type: in vivo, Staphylococcus aureus; settings: for Mean Log CFU/thigh from baseline: 72 h
Method: (§1) Methods: Thigh infection was established for 14 clinical SA isolates (3 MSSA and 11 MRSA; MICs 0.0015 to 2 μg/mL) in neutropenic CD-1 mice (n=3/group) with 5×10^5 colony forming units (CFU) of cells. Single intravenous doses of ORI (0.5 to 40 mg/kg) were tested against one MSSA and one MRSA strain. […] Both thighs were harvested and CFU counts were evaluated after 24 h (single doses) or 72 h (HEQ doses) treatment.
(§2) In vivo studies: All studies were performed in accordance with protocols that were approved by the Institutional Animal Care and Use Committee. Thigh infection was established for 14 clinical S. aureus isolates in neutropenic CD-1 mice (19-21 g, n=3/group) with 5×10^5 colony forming units (CFU) of cells in both thighs. In the single dose-response study, the number of bacteria/thigh was monitored 24 h post-infection (PI). In the human equivalent (HEQ) dose-ranging study, the bacterial titer was determined in mouse thighs at 2, 4, 8, 12, 24, 48 and 72 h PI. Thighs were serially diluted and plated on Baird-Parker agar plates to determine the bacterial titer. The limit of detection was 1.69 Log10 CFU/thigh. Bacterial titer decreases were calculated (compared to starting inoculum) in thighs at 72 h PI for each HEQ dose regimen of ORI.
(§3) Antibiotherapy: 1) In the single dose response study, mice were treated intravenously (IV) with ORI at doses ranging from 0.4 to 40 mg/kg at lh PI. 2) In the HEQ dose-ranging study, starting at 1 h PI, the mice received a multiple IV dose regimen to simulate human drug concentration profile. […]
(§4) Data analysis: The inhibitiory sigmoid Emax model was used to calculate the ED50 of oritavancin (dose resulting in 50% of the maximal bacterial killing) ±95% confidence interval by using the GraphPad Prism software. The statistical calculations to compare bacterial titer from each experimental group were performed according to the Mann-Whitney U test by using StatsDirect software. p-values below 0.05 were considered significant.

[2] = system: MSSA (S. aureus ATCC13709 and clinical MSSA strains); experiment: Neutropenic-mouse thigh infection model; assay type: in vivo, Staphylococcus aureus; settings: for Log kill / Mean Log CFU/thigh from baseline: 72 h; for Log kill: S. aureus ATCC13709; for Mean Log CFU/thigh from baseline: MSSA (3 strains)
Method: as §1, §2, §3, §4

What does the source list for `CN[C@H](CC(C)C)C(=O)N[C@H]1C(=O)N[C@@H](CC(N)=O)C(=O)N[C@H]2C(=O)N[C@H]3C(=O)N[C@H](C(=O)N[C@H](C(=O)O)c4cc(O)cc(O)c4-c4cc3ccc4O)[C@H](O[C@H]3C[C@](C)(N)[C@@H](O)[C@H](C)O3)c3ccc(c(Cl)c3)Oc3cc2cc(c3O[C@@H]2O[C@H](CO)[C@@H](O)[C@H](O)[C@H]2O[C@H]2C[C@](C)(NCc3ccc(-c4ccc(Cl)cc4)cc3)[C@@H](O)[C@H](C)O2)Oc2ccc(cc2Cl)[C@H]1O` [Oritavancin, N-(4-(4-chlorophenyl)benzyl)A82846B]?
Mean Log CFU/thigh from baseline ([1]; MRSA (3 strains), HEQ dose 100 mg × 3 days): 0.8 Log CFU/thigh; Mean Log CFU/thigh from baseline ([1]; MRSA (3 strains), HEQ dose 400 mg × 3 days): −2.8 Log CFU/thigh; Mean Log CFU/thigh from baseline ([1]; MRSA (11 strains), HEQ dose 200 mg × 3 days): −0.9 Log CFU/thigh; Mean Log CFU/thigh from baseline ([1]; MRSA (11 strains), HEQ dose 1200 mg × 1 day): −2.8 Log CFU/thigh; ED50 ([1]; Staphylococcus aureus, single IV dose 1 h post-infection, 24 h readout, NRS123 (MRSA), neutropenic CD-1 mice, 95% CI in brackets, read-out: ED50 (dose resulting in 50% of the maximal killing)): 2.4 mg/kg; ED50 (dose resulting in 50% of the maximal killing) ([1]; single IV dose 1 h post-infection, 24 h readout, NRS123 (MRSA), neutropenic CD-1 mice, 95% CI in brackets): 2.4 (0.8-7.3) mg/kg; Log kill ([2]; HEQ dose 200 mg): > 2 Log; Log kill ([2]; HEQ dose 400 mg): > 2 Log; Log kill ([2]; HEQ dose 1200 mg): > 2 Log; Mean Log CFU/thigh from baseline ([2]; HEQ dose 100 mg × 3 days): 1.5 Log CFU/thigh; Mean Log CFU/thigh from baseline ([2]; HEQ dose 200 mg × 3 days): −0.1 Log CFU/thigh; Mean Log CFU/thigh from baseline ([2]; HEQ dose 400 mg × 3 days): −1.6 Log CFU/thigh; Mean Log CFU/thigh from baseline ([2]; HEQ dose 1200 mg × 1 day): −2.7 Log CFU/thigh; ED50 ([2]; Staphylococcus aureus, single IV dose 1 h post-infection, 24 h readout, S. aureus ATCC13709 (MSSA), neutropenic CD-1 mice, 95% CI in brackets, read-out: ED50 (dose resulting in 50% of the maximal killing)): 5.8 mg/kg; ED50 (dose resulting in 50% of the maximal killing) ([2]; single IV dose 1 h post-infection, 24 h readout, S. aureus ATCC13709 (MSSA), neutropenic CD-1 mice, 95% CI in brackets): 5.8 (3.3-10) mg/kg
